Legend:
[1] = xn = mol fraction of the nth substance listed; conditions: 101 kPa, Liquid; for speed of sound: Frequency=2 MHz, Linear variable-path acoustic interferometer; for mass density: Vibrating tube method
[2] = 101 kPa, Liquid; for speed of sound: Frequency=2 MHz, Linear variable-path acoustic interferometer; for mass density: Vibrating tube method

Cc1ccccc1Cl [2-chlorotoluene] + CCCCO
[1]
Conditions	mass density, 298.15 K [kg/m3]	mass density, 303.15 K [kg/m3]	mass density, 308.15 K [kg/m3]	speed of sound, 298.15 K [m/s]	speed of sound, 303.15 K [m/s]	speed of sound, 308.15 K [m/s]
x1 = 0.0914	837.37	833.28	829.2	1247.4	1231.4	1213.3
x1 = 0.2026	873.25	868.95	864.69	1255.5	1238.2	1219.2
x1 = 0.2888	899.51	895.11	890.72	1260.1	1241.1	1222.2
x1 = 0.3958	930.38	925.85	921.35	1264.2	1244.1	1224.3
x1 = 0.4973	958.03	953.44	948.87	1267.1	1246	1226
x1 = 0.6021	985.11	980.47	975.89	1269	1249.2	1227.4
x1 = 0.6969	1008.43	1003.83	999.22	1271.4	1250.4	1231
x1 = 0.7892	1030.29	1025.68	1021.07	1276.7	1255.4	1236.4
x1 = 0.894	1054.17	1049.55	1044.94	1285.6	1266.4	1247
x1 = 1	1077.38	1072.8	1068.21	1299.8	1283.6	1265.6

Cc1ccccc1Cl [2-chlorotoluene] + CCCO
[1]
Conditions	mass density, 298.15 K [kg/m3]	mass density, 303.15 K [kg/m3]	mass density, 308.15 K [kg/m3]	speed of sound, 298.15 K [m/s]	speed of sound, 303.15 K [m/s]	speed of sound, 308.15 K [m/s]
x1 = 0.089	837.16	832.98	828.75	1219	1200.1	1181.4
x1 = 0.1947	877.01	872.53	868.14	1232	1212.4	1192.8
x1 = 0.2938	910.41	905.71	901.22	1242.5	1221.5	1201.9
x1 = 0.3841	937.91	933.15	928.51	1249.2	1228.7	1207.8
x1 = 0.4898	967.13	962.37	957.66	1257	1234.8	1213.9
x1 = 0.5918	992.79	988	983.25	1262.5	1240.5	1219.2
x1 = 0.6979	1017.16	1012.42	1007.7	1269	1246.3	1225.2
x1 = 0.7955	1037.96	1033.25	1028.56	1275.3	1253.4	1234
x1 = 0.8932	1057.42	1052.78	1048.12	1284.4	1264.7	1245.4
x1 = 1	1077.38	1072.8	1068.21	1299.8	1283.6	1265.6

CCCCO [butan-1-ol]
[2]
Conditions	mass density [kg/m3]	speed of sound [m/s]
298.15 K	805.95	1238.9
303.15 K	802.11	1223.4
308.15 K	798.24	1206.8

CCCCO [butan-1-ol] + Cc1ccccc1Cl
[1], x2 = 0
Conditions	mass density [kg/m3]	speed of sound [m/s]
298.15 K	805.95	1238.9
303.15 K	802.11	1223.4
308.15 K	798.24	1206.8

CCCCCCCO [heptan-1-ol]
[2]
Conditions	mass density [kg/m3]	speed of sound [m/s]
298.15 K	818.79	1326.5
303.15 K	815.21	1313.6
308.15 K	811.62	1293.1

CCCCCCCO [heptan-1-ol] + Cc1ccccc1Cl
[1], x2 = 0
Conditions	mass density [kg/m3]	speed of sound [m/s]
298.15 K	818.79	1326.5
303.15 K	815.21	1313.6
308.15 K	811.62	1293.1

CCCCCCO [hexan-1-ol]
[2]
Conditions	mass density [kg/m3]	speed of sound [m/s]
298.15 K	815.31	1303.2
303.15 K	811.7	1286.4
308.15 K	808.06	1269.7

CCCCCCO [hexan-1-ol] + Cc1ccccc1Cl
[1], x2 = 0
Conditions	mass density [kg/m3]	speed of sound [m/s]
298.15 K	815.31	1303.2
303.15 K	811.7	1286.4
308.15 K	808.06	1269.7

CCCCCO [pentan-1-ol]
[2]
Conditions	mass density [kg/m3]	speed of sound [m/s]
298.15 K	810.82	1276.2
303.15 K	807.1	1259.5
308.15 K	803.38	1248.1

CCCCCO [pentan-1-ol] + Cc1ccccc1Cl
[1], x2 = 0
Conditions	mass density [kg/m3]	speed of sound [m/s]
298.15 K	810.82	1276.2
303.15 K	807.1	1259.5
308.15 K	803.38	1248.1

CCCO [propan-1-ol]
[2]
Conditions	mass density [kg/m3]	speed of sound [m/s]
298.15 K	799.65	1206.5
303.15 K	795.65	1188.6
308.15 K	791.65	1171.8

CCCO [propan-1-ol] + Cc1ccccc1Cl
[1], x2 = 0
Conditions	mass density [kg/m3]	speed of sound [m/s]
298.15 K	799.65	1206.5
303.15 K	795.65	1188.6
308.15 K	791.65	1171.8

From the NIST ThermoML archive (doi:10.1016/j.jct.2013.08.013)
